Measurements published in patent publication US12448394B2, “Heterocyclic pyrazole derivatives as type III receptor tyrosine kinase inhibitors” (DEVELOPMENT CENTER FOR BIOTECHNOLOGY, priority 2019, dated 2025).

Tests used:
[1] = molecular target: T1, FLT3 kinase (Homo sapiens, UniProt P36888); test: FLT3 kinase assay (AlphaScreen); type: biochemical; conditions: read-out: Ranking of IC50 values, FLT3
T1 construct: purchased SignalChem
T1 sequence (P36888 27-993): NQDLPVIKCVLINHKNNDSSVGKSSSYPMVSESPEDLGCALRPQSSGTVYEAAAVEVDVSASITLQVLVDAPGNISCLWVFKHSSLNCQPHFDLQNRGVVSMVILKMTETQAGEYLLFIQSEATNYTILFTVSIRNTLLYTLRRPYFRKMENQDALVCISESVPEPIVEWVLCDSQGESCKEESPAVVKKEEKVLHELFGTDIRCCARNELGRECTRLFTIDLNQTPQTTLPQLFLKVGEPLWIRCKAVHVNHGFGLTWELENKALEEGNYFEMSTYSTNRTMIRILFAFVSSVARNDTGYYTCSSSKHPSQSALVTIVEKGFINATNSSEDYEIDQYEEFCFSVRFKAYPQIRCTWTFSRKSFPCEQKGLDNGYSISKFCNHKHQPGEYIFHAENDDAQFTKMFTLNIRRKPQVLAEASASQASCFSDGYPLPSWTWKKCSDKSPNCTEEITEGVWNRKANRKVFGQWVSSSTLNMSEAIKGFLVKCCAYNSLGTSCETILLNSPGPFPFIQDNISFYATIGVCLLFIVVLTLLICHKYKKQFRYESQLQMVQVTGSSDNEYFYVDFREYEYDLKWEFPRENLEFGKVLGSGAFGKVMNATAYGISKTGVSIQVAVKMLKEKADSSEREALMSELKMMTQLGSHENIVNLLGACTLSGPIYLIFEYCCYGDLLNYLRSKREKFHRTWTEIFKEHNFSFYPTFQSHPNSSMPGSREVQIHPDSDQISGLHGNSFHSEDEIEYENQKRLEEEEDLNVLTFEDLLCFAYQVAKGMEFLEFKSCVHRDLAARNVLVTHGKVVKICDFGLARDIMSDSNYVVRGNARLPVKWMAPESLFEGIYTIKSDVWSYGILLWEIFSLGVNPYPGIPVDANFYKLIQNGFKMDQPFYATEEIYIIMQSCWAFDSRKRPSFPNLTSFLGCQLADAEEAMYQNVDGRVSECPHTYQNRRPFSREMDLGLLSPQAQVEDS
Method: Inhibition of FLT3 kinase activity by a test compound disclosed herein was estimated by AlphaScreen (PerkinElmer, […]). Standard assay conditions were 1.5 ng of recombinant FLT3 kinase (SignalChem, Richmond, BC, Canada) with 6 ng Biotin-conjugated Poly-(Glu 4: Tyr 1) (Cisbio, Bedford, MA, USA) in the assay buffer (10 μM ATP, 10 mM MOPs, pH7.0, 0.21 mM EDTA, 0.5% glycerol, 1 mg/mL BSA, 0.01% 2-mercaptoethanol, 0.001% Brij35, 10 mM MgCl2) in a final volume of 25 μL. Reactions were incubated at 30° C. for 30 min and stopped by adding 5 μL of 50 mM EDTA. Analysis of resulting product using an AlphaScreen kit and counted with Enspire Alpha (PerkinElmer, Waltham, MA, USA). […] The IC50 values of inhibitors were determined after carrying out assays with each compound at serially diluted concentrations in duplication. The results were analyzed using linear regression software (GraphPad Prism 5; GraphPad Software Inc.)

[2] = molecular target: T2, PDGFRα kinase (Homo sapiens, UniProt P16234); test: PDGFRα kinase assay (AlphaScreen); type: biochemical; conditions: read-out: Ranking of IC50 values, PDGFRα
T2 construct: purchased SignalChem
Method: Inhibition of PDGFRα kinase activity by a test compound disclosed herein was estimated by AlphaScreen (PerkinElmer). Standard assay conditions were 1.5 ng of recombinant PDGFRα kinase (SignalChem) with 6 ng Biotin-conjugated Poly-(Glu 4: Tyr 1) (Cisbio) in the assay buffer (10 μM ATP, 10 mM MOPs, pH 7.0, 0.21 mM EDTA, 0.5% glycerol, 1 mg/mL BSA, 0.01% 2-mercaptoethanol, 0.001% Brij35, 10 mM MgCl2) in a final volume of 25 μL. Reactions were incubated at 30° C. for 30 min and stopped by adding […] of 50 mM EDTA. Analysis of resulting product using an AlphaScreen kit and counted with Enspire Alpha (PerkinElmer). […] The IC50 values of inhibitors were determined after carrying out assays with each compound at serially diluted concentrations in duplication. The results were analyzed using linear regression software (GraphPad Prism 5; GraphPad Software Inc.)

[3] = tested on: phosphorylation of FLT3 and its down-stream effector STAT5; test: Western blotting of p-FLT3 and p-STAT5 in MV4-11 cells; type: cell-based; conditions: Homo sapiens; at 30 nM treatment, 3 hours, FLT3-ITD positive MV4-11 leukemia cells; read-out: inhibition activity against phosphorylation of FLT3 and its down-stream effector STAT5
Method: The potent compounds of formula (I) in EXAMPLE 2 were evaluated, by western blotting assay, for their cellular potencies against phosphorylation of FLT3 and its down-stream effector STAT5 in MV4-11 leukemia cell line with constitutive activation of FLT3 signaling. For western blotting experiments, MV4-11 cells were cultured in IMDM medium containing 0.1% FBS overnight. On the assay day, three million cells were treated with or without compounds for 3 hours in 15 mL tubes. Then, the whole cell lysates were harvested, following extraction by adding 2×SDS Sample Buffer and boiling on hot plate at 105° C. for 15 minutes. The resulting cell lysates were separated by SDS-PAGE electrophoresis and transferred to PVDF membrane. Protein expression was detected using immunoblot with corresponding primary antibody and secondary antibody following the standard procedures. Antibody against p-FLT3 (Tyr-591), anti-rabbit IgG HRP-linked secondary antibody, and anti-mouse IgG HRP-linked secondary antibody were purchased from Cell Signaling Technology. Antibody against p-STAT5 (Tyr-694) was purchased from BD biosciences. Antibody against actin was purchased from R&D system. […] Band intensities of western blot were also quantified by ChemiDoc™ MP Imaging System. Relative intensities of bandscorresponding to drug treatments at a single concentration (30 nM) were compared to the DMSO control group. The percentage (%) inhibition at each drug concentration was calculated using the formula: Percentage(%)inhibition=(1−Relative intensity)×100.

T2 sequence (P16234 24-1089): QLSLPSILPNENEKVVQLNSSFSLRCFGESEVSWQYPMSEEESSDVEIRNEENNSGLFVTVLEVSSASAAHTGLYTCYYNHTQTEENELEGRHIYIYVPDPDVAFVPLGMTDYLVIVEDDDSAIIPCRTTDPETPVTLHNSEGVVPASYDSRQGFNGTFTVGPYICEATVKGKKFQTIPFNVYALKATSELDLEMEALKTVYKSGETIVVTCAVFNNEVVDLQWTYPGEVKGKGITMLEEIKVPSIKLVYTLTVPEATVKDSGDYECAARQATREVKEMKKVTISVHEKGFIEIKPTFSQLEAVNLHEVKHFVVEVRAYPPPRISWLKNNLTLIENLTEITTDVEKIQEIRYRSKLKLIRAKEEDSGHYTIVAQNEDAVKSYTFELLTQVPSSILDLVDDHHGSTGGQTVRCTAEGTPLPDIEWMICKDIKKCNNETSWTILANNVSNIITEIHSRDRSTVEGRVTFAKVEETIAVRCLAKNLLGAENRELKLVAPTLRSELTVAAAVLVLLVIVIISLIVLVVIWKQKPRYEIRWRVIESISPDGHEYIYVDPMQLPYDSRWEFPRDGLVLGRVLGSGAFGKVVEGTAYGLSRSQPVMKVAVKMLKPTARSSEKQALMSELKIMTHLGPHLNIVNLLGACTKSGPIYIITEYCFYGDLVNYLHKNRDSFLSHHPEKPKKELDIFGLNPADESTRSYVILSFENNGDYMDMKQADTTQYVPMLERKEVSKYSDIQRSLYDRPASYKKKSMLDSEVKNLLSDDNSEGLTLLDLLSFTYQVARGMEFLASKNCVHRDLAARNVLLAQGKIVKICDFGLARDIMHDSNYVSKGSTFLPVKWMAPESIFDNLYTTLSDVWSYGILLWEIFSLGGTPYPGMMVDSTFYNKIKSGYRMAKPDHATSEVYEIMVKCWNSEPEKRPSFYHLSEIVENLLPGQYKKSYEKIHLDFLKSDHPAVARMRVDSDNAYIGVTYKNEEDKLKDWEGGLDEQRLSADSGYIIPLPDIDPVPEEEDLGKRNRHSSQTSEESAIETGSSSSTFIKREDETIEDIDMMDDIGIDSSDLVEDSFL

Row | SMILES | IC50 [1] [nM] | IC50 [2] [nM] | inhibition at 0.03 µM [3] [%]
1 | CN(C)c1ccc(-c2cc3c(s2)Cc2c(-c4ccc5cnn(C)c5c4)n[nH]c2-3)cn1 [Compound 5, N,N-dimethyl-5-(3-(1-methyl-1H-indazol-6-yl)-1,4-dihydrothieno [2′,3′:4,5]cyclopenta[1,2-c]pyrazol-6-yl)pyridin-2-amine] | 1 to 10 | 10 to 30 | –
2 | c1cc(-c2cc3c(s2)Cc2c(-c4ccc5cn[nH]c5c4)n[nH]c2-3)ccc1CN1CCOCC1 [Compound 6, 4-(4-(3-(1H-indazol-6-yl)-1,4-dihydrothieno[2′,3′:4,5]cyclopenta[1,2-c]pyrazol-6-yl)benzyl)morpholine] | < 1 | 1 to 10 | > 50
3 | C[C@@H]1CN(Cc2ccc(-c3cc4c(s3)Cc3c(-c5ccc6cn[nH]c6c5)n[nH]c3-4)cc2)C[C@H](C)O1 [Compound 7, (2S,6R)-4-(4-(3-(1H-indazol-6-yl)-1,4-dihydrothieno[2′,3′:4,5]cyclopenta [1,2-c]pyrazol-6-yl)benzyl)-2,6-dimethylmorpholine] | 1 to 10 | 1 to 10 | > 50
4 | Cn1ncc2ccc(-c3n[nH]c4c3Cc3sc(-c5ccc(CN6CCOCC6)cc5)cc3-4)cc21 [Compound 8, 4-(4-(3-(1-methyl-1H-indazol-6-yl)-1,4-dihydro-thieno[2′,3′:4,5]cyclopenta [1,2-c]pyrazol-6-yl)benzyl) morpholine] | < 1 | 1 to 10 | > 50
5 | C[C@@H]1CN(Cc2ccc(-c3cc4c(s3)Cc3c(-c5ccc6cnn(C)c6c5)n[nH]c3-4)cn2)C[C@H](C)O1 [Compound 9, (2S,6R)-2,6-dimethyl-4-((5-(3-(1-methyl-lH-indazol-6-yl)-1,4-dihydro-thieno[2′,3′:4,5]cyclopenta [1,2-c]pyrazol-6-yl)pyridin-2-yl)methyl) morpholine] | < 1 | 1 to 10 | > 50
6 | Cc1ccc(-c2cc3c(s2)Cc2c(-c4ccc5cnn(C)c5c4)n[nH]c2-3)cn1 [Compound 11, 3-(1-methyl-1H-indazol-6-yl)-6-(6-methylpyridin-3-yl)-1,4-dihydrothieno [2′,3′:4,5]cyclopenta[1,2-c] pyrazole] | 1 to 10 | 10 to 30 | –
7 | CN1CCN(Cc2cccc(-c3cc4c(s3)Cc3c(-c5ccc6cnn(C)c6c5)n[nH]c3-4)c2)CC1 [Compound 14, 3-(1-methyl-1H-indazol-6-yl)-6-(3-((4-methylpiperazin-1-yl)methyl)phenyl)-1,4-dihydrothieno [2′,3′:4,5]cyclopenta[1,2-c] pyrazole] | 1 to 10 | 10 to 30 | –
8 | Cc1cc(-c2cc3c(s2)Cc2c(-c4ccc5cnn(C)c5c4)n[nH]c2-3)ccc1CN1CCOCC1 [Compound 26, 4-(2-methyl-4-(3-(1-methyl-1H-indazol-6-yl)-1,4-dihydrothieno[2′,3′:4,5]cyclopenta[1,2-c]pyrazol-6-yl)benzyl)morpholine] | 1 to 10 | 10 to 30 | –
9 | Cn1ncc2ccc(-c3n[nH]c4c3Cc3sc(-c5ccc(CN6CCOCC6)c(C(F)(F)F)c5)cc3-4)cc21 [Compound 27, 4-(4-(3-(1-methyl-1H-indazol-6-yl)-1,4-dihydrothieno[2′,3′:4,5]cyclopenta[1,2-c]pyrazol-6-yl)-2-(trifluoromethyl)benzyl)morpholine] | 1 to 10 | 100 to 300 | –
10 | CC(C)Cn1ncc2ccc(-c3n[nH]c4c3Cc3sc(-c5ccc(CN6CCOCC6)cc5)cc3-4)cc21 [Compound 35, 4-(4-(3-(1-isobutyl-1H-indazol-6-yl)-1,4-dihydro-thieno[2′,3′:4,5]cyclopenta [1,2-c]pyrazol-6-yl)benzyl)morpholine] | 1 to 10 | 30 to 100 | –
11 | Cn1ncc2ccc(-c3n[nH]c4c3Cc3sc(-c5ccc(CN6CCC(F)(F)C6)cc5)cc3-4)cc21 [Compound 67, 6-(4-((3,3-difluoro-pyrrolidin-1-yl)methyl)phenyl)-3-(1-methyl-1H-indazol-6-yl)-1,4-dihydro-thieno[2′,3′:4,5]cyclopenta [1,2-c]pyrazole] | 1 to 10 | 10 to 30 | –
12 | Cn1ncc2ccc(-c3n[nH]c4c3Cc3sc(-c5cccc(OCCN6CCOCC6)c5)cc3-4)cc21 [Compound 70, 4-(2-(3-(3-(1-methyl-1H-indazol-6-yl)-1,4-dihydro-thieno[2′,3′:4,5]cyclopenta [1,2-c]pyrazol-6-yl)phenoxy)ethyl)morpholine] | 1 to 10 | 10 to 30 | –
13 | CN(c1ccc(-c2cc3c(s2)Cc2c(-c4ccc5cnn(C)c5c4)n[nH]c2-3)cc1)C1CCOCC1 [Compound 73, N-methyl-N-(4-(3-(1-methyl-1H-indazol-6-yl)-1,4-dihydrothieno [2′,3′:4,5]cyclopenta [1,2-c]pyrazol-6-yl)phenyl)tetrahydro-2H-pyran-4-amine] | 1 to 10 | 30 to 100 | –
14 | Cn1ncc2ccc(-c3n[nH]c4c3Cc3sc(-c5ccc(C=C6CCOCC6)cc5)cc3-4)cc21 [Compound 76, 3-(1-methyl-1H-indazol-6-yl)-6-(4-((tetrahydro-4H-pyran-4-ylidene)methyl)phenyl)-1,4-dihydrothieno[2′,3′:4,5] cyclopenta[1,2-c]pyrazole] | 1 to 10 | 100 to 300 | –
15 | Cn1ncc2ccc(-c3n[nH]c4c3Cc3sc(-c5ccc(CC6CCOCC6)cc5)cc3-4)cc21 [Compound 77, 3-(1-methyl-1H-indazol-6-yl)-6-(4-((tetrahydro-2H-pyran-4-yl)methyl)phenyl)-1,4-dihydrothieno [2′,3′:4,5]cyclopenta [1,2-c]pyrazole] | 1 to 10 | 30 to 100 | –
16 | Cn1ncc2ccc(-c3n[nH]c4c3Cc3sc(-c5ccc(CN6CC(F)(F)C6)cc5)cc3-4)cc21 [Compound 104, 6-(4-((3,3-difluoroazeti-din-1-yl)methyl)phenyl)-3-(1-methyl-1H-indazol-6-yl)-1,4-dihydrothieno [2′,3′:4,5]cyclopenta [1,2-c]pyrazole] | 1 to 10 | 30 to 100 | –
